# In US20230219911A1, “BENZOTHIAZOLE DERIVATIVES AND USES THEREOF” (SHENYANG PHARMACEUTICAL UNIVERSITY, priority 2020, published 2023):
# Where two headings read alike, the source gives them in different places.
# Legend:
# [1] = molecular target: T1, sEH enzyme (human recombinant) (Homo sapiens, UniProt P34913); experiment: in vitro IC50 of soluble epoxide hydrolase (sEH) by fluorescence analysis; format: biochemical
# T1 construct: purchased Cayman Chemical
# T1 sequence (P34913 1-555): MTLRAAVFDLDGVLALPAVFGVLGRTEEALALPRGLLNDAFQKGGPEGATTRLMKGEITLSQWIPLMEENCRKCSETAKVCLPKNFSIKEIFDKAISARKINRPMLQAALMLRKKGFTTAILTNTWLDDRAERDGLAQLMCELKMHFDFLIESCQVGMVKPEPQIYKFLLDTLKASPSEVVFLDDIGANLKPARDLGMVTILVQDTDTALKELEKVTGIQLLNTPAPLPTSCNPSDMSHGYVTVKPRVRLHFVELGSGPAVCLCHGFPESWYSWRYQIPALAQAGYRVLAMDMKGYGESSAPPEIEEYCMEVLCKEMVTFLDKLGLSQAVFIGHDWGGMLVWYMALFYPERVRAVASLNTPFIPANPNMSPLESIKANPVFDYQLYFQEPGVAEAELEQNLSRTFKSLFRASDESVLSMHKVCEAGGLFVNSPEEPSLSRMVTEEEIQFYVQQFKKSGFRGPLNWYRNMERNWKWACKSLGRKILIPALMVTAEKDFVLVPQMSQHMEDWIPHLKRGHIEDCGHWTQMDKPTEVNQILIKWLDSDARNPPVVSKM
# Protocol: The benzothiazole skeleton compounds according to the above formula I of the present invention were tested for the in vitro sEH enzyme activity by fluorescence analysis. […] 12 μL of sEH enzyme (human recombinant, 0.5 mg/mL, Cayman Chemical) was diluted with 588 μL of buffer (25 mM bis-Tris, pH 7.0). […] The inhibitions at different concentrations for the compound were respectively measured in accordance with the inhibition assay, to calculate IC50.
# [2] = tested on: carrageenan-induced paw swelling in KM mice; experiment: Measurement of anti-inflammatory effect, carrageenan-induced paw swelling; format: in vivo; details: intraperitoneal injection 1 hour before carrageenan, FIG. 3
# Protocol: 1 hour in advance, the mice were intraperitoneally injected with the solutions of the compounds of Examples 12, 18, 27, and 40 (10% PEG 400, 10% Tween 80) or the blank solvent, respectively. Taking the initial paw thickness of the mice before modeling as 100%, the changes in the paw thickness of the mice were measured.
# [3] = tested on: lipopolysaccharide-injected KM mice, forced swimming test; experiment: Measurement of antidepressant effect, lipopolysaccharide / forced swimming test; format: in vivo; details: subcutaneous injection 23 hours after lipopolysaccharide, test 1 hour later, FIG. 7
# Protocol: Male KM mice (6 to 8 weeks old) (SPF (Beijing) Biotechnology Co., Ltd.) swam in advance for 10 min, and were injected with lipopolysaccharide (0.5 mg/kg). After 23 hours, the mice were subcutaneously injected with the solutions of the compounds of Examples 12 and 40 or the blank solvent. After 1 hour, the mice were subjected to the forced swimming test for 6 min, and the immobility time (s) in later 4 minute for the mice in each group was recorded.
# [4] = tested on: streptozotocin STZ diabetic model Balb/c mice; experiment: Measurement of hypoglycemic effect, streptozotocin diabetic model; format: in vivo; details: intraperitoneal once a day, after two weeks, FIG. 4
# Protocol: Male Balb/c mice (6 to 8 weeks old) (SPF (Beijing) Biotechnology Co., Ltd.) were intraperitoneally injected with streptozotocin STZ (40 mg/kg) once a day for 5 consecutive days, to prepare a diabetic model (Like A A, Rossini A A. Streptozotocin-induced pancreatic insulitis: new model of diabetes mellitus. Science, 1976, 193(4251):415-7). The mice after modeling were intraperitoneally injected with the solution of compound of Example 12 once a day.
# [5] = molecular target: T1, sEH enzyme (human recombinant); experiment: in vitro sEH enzyme activity by fluorescence analysis, single concentration inhibition; format: biochemical; details: read-out: sEH % inhibition, @ 0.1 μM
# Protocol: The benzothiazole skeleton compounds (concentration: 0.1 μM) according to the above formula I of the present invention were tested for the in vitro sEH enzyme activity by fluorescence analysis.
# 12 μL of sEH enzyme (human recombinant, 0.5 mg/mL, Cayman Chemical) was diluted with 588 μL of buffer (25 mM bis-Tris, pH 7.0). The fluorescent substrate was PHOME (cyano-(6-methoxy-naphthalen-2-yl)-methyl (3-phenyl-oxiranyl)-acetate) in DMSO (10 μM, Cayman Chemical). The compound to be tested was dissolved in 100% DMSO at a concentration of 4 μM. 185 μL of buffer (25 mM bis-Tris, pH 7.0), 5 μL of compound solution, and 5 μL of diluted sEH enzyme were added to the wells of a 96-well plate, and finally 5 μL of substrate solution was added to initiate the reaction. After incubating at 37° C. for 15 min, the fluorescence signal was measured with a microplate reader (excitation wavelength 330 nm, emission wavelength 465 nm).
# Inhibition (%)=(F0−F1)/(F0)×100.
# [6] = tested on: carrageenan inflammatory pain model SD rats; experiment: Measurement of analgesic effect, carrageenan inflammatory pain model, hot plate; format: in vivo; details: intragastric suspension 15 mg/mL, 1 hour before modeling, FIG. 6
# Protocol: Male SD rats (6 to 8 weeks old) (SPF (Beijing) Biotechnology Co., Ltd.) were subcutaneously injected with 50 μL of 1% λ-carrageenan saline solution at planta to prepare an inflammatory pain model (Rose T E, Morisseau C, Liu J Y, et al. 1-Aryl-3-(1-acylpiperidin-4-yl)urea inhibitors of human and murine soluble epoxide hydrolase: structure-activity relationships, pharmacokinetics, and reduction of inflammatory pain. J Med Chem, 2010, 53(19): 7067-7075). The compounds of Examples 12 and 40 were added to 0.5% sodium carboxymethylcellulose solution and ground to prepare a suspension with a concentration of 15 mg/mL. 1 hour before modeling, the rats were intragastrically administrated. The changes in the paw withdrawal time of rats were measured with a hot plate dolorimeter.
# [7] = tested on: traumatic brain injury model SD rats; experiment: Measurement of brain injury protection, traumatic brain injury model (modified Feeney method); format: in vivo
# Protocol: 45 male SD rats (6 to 8 weeks old) (SPF (Beijing) Biotechnology Co., Ltd.) were divided into the sham group, blank solvent group, and dosing group. 72 hours after intraperitoneally injecting the compound of Example 12 or blank solvent, a traumatic brain injury model was established using the modified Feeney method (Marmarou A, Foda M A, van den Brink W, et al., A new model of diffuse brain injury in rats. Part I: Pathophysiology and biomechanics. Journal of Neurosurgry, 1994, 80(2):291 to 300.). 23 hours after model establishment, three […] in each group were injected with Evans blue solution through the tail vein, and after 1 hour of circulation, the mice were decapitated and the brain was taken out to determine the content of Evans blue (EB), so as to study the permeability. Another three rats were taken to measure the water content in brain.
# [8] = tested on: STZ-induced retinopathy model Wistar rats; experiment: Improvement effect on diabetic retinopathy, STZ-induced retinopathy model; format: in vivo; details: 0.1% eye drops topically every day, after 6 months, FIG. 5
# Protocol: Male Wistar rats (180 to 200 g) (Experimental Animal Center, Hebei Medical University) were intraperitoneally injected with streptozotocin STZ (60 mg/kg) to prepare a diabetic model, and were fed for 3 months to induce a retinopathy model (Miyamoto K, Khosrof S, Bursell S E, et al. Prevention of leukostasis and vascular leakage in streptozotocin-induced diabetic retinopathy via intercellular adhesion molecule-1 inhibition. Proc Natl Acad Sci USA, 1999, 96(19): 10836-10841). The compound of Example 40 was dissolved in 10% hydroxypropyl-p-cyclodextrin solution, to be prepared into eye drops with a content of 0.1% for the compound of Example 40. The rats were topically administrated in eyes every day.
Structure (SMILES),"IC50 ([1]; human recombinant sEH, PHOME substrate, read-out: IC50) [nM]",carrageenan-induced paw swelling (paw thickness) [2],effect on paw swelling compared with celecoxib [2],immobility time in forced swimming [3],blood glucose [4],glucose tolerance [4],inhibition at 0.1 µM [5] [%],paw withdrawal time in hot plate dolorimeter [6],"Water content in brain (%) ([7]; 30 mg/kg intraperitoneal, 72 hours before traumatic brain injury, * p < 0.05 vs blank solvent group)","EB content (μg/g) ([7]; 30 mg/kg intraperitoneal, Evans blue in brain, 24 hours after model, * p < 0.05 vs blank solvent group)","water content in brain (in words) ([7]; traumatic brain injury rats, text summary of Table 4)",IC50 [1] [nM],"inhibition at 0.1 µM ([5]; compound 0.1 μM, human recombinant sEH, PHOME substrate, 37° C. 15 min) [%]","non-proliferative diabetic retinopathy symptoms (retinal capillary free pericytes, vascular leakage) [8]"
"Nc1nc2ccc(N(CCN3CCOCC3)C(=O)Nc3ccc(Cl)cc3)cc2s1 [Example 12, 1-(2-aminobenzo[d]thiazol-6-yl)-1-[2-(4-morpholinyl)ethyl]-3-(4-chlorophenyl)urea]",4.1,significantly inhibit,better than that of celecoxib,significantly reduce the immobility time,significantly lower than that of the model group,higher than that of the model group,68.7,significantly prolong the paw withdrawal time,79.46 ± 0.68 * %,25.23 ± 1.63 * μg/g,reduce the water content,–,–,–
"O=C(Nc1ccc(Cl)cc1)Nc1nc2ccc(N(CCN3CCOCC3)C(=O)Nc3ccc(Cl)cc3)cc2s1 [Example 40, 1-{2-[3-(4-chlorophenyl)ureido]benzo[d]thiazol-6-yl}-1-[2-(4-morpholinyl)ethyl]-3-(4-chlorophenyl)urea]",–,significantly inhibit,better than that of celecoxib,significantly reduce the immobility time,–,–,–,significantly prolong the paw withdrawal time,–,–,–,0.11,43,significantly alleviated
